# In ChEMBL document CHEMBL4393662, “Structural optimization on a virtual screening hit of smoothened receptor” (Eur J Med Chem, 2019):
# The source made the active and inactive calls. The calls are words filed in the database; no cut-off is given here.
# How the values were obtained:
# Protein smoothened [1] = biological target: Protein smoothened (Mus musculus, UniProt P56726); test: Antagonist activity at Smo receptor in mouse NIH/3T3 cells harboring GRE-Luc assessed as inhibition of SAG-induced Hh signaling pathway preincubated with cells followed by SAG addition measured after 48 hrs by luciferase reporter gene assay; format: cell-based
# Sequence of Protein smoothened (Mus musculus, UniProt P56726) (P56726 whole entry): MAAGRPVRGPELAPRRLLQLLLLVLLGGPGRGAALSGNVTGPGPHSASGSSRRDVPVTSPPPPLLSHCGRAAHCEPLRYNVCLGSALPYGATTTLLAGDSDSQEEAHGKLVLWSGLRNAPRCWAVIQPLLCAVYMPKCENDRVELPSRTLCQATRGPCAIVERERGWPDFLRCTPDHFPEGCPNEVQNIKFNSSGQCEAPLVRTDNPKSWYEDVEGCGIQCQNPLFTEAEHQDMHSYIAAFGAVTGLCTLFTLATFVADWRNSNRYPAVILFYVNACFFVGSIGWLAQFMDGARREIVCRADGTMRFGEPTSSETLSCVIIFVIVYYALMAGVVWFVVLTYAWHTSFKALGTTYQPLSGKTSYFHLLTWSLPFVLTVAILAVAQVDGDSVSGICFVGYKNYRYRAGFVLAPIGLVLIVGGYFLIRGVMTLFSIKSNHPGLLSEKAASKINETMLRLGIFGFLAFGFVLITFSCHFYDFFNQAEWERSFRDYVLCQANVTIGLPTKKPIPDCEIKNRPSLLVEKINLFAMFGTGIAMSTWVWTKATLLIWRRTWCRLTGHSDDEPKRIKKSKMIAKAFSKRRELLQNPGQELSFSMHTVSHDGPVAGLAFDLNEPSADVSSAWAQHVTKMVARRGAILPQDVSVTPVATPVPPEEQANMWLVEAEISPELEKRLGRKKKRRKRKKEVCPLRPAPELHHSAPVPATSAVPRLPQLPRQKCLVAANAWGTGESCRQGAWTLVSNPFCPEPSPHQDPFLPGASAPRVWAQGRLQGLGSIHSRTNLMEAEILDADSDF
# HEK293 = test: Inhibition of Wnt pathway in HEK293 cells harbouring TCF-luciferase cocultured with LWnt3A cells by Topflash reporter gene assay; format: cell-based; details: Homo sapiens
# Medulloblastoma cell = test: Antiproliferative activity against mouse Ptch+/- medulloblastoma cells assessed as inhibition of cell growth incubated for 36 hrs by CCK-8 assay; format: functional, cell-based
# U-251 = test: Cytotoxicity activity human U251 cells assessed as reduction of cell viability upto 1000 nM incubated for 48 hrs by CCK-8 assay; format: cell-based; details: u-251, 48 h
# [2] = test system: Protein smoothened (Homo sapiens), Q99835 [D473H]; test: Antagonist activity at Smo D473H mutant receptor in mouse NIH/3T3 cells assessed as inhibition of Gli1 mRNA expression incubated for 48 hrs by qRT-PCR analysis; format: cell-based
# Sequence of Protein smoothened (Homo sapiens), Q99835 [D473H] (Q99835 whole entry D473H): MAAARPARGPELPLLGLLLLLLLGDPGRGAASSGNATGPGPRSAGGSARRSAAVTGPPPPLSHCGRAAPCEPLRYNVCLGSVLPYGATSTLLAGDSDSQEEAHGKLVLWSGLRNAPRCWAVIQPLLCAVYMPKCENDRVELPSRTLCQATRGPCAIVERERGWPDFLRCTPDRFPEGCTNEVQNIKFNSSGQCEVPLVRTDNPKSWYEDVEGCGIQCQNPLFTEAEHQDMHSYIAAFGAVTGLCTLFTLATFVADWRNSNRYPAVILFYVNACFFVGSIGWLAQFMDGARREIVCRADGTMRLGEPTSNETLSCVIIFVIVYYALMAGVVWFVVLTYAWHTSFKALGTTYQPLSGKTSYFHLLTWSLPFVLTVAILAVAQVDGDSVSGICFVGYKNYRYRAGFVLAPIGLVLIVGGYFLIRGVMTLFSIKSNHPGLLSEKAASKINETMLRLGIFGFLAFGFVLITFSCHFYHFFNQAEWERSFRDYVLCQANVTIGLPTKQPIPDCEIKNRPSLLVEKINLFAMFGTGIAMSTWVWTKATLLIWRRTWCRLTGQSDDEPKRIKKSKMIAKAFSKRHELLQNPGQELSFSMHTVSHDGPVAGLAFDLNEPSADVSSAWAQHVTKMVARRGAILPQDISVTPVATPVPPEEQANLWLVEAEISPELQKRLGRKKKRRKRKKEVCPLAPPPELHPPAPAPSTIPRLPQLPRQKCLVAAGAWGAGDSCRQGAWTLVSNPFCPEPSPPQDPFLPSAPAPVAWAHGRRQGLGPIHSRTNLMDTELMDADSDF
# [3] = biological target: Voltage-gated inwardly rectifying potassium channel KCNH2 (Homo sapiens, UniProt Q12809); test: Inhibition of human ERG by patch clamp method
# Sequence of Voltage-gated inwardly rectifying potassium channel KCNH2 (Q12809 whole entry): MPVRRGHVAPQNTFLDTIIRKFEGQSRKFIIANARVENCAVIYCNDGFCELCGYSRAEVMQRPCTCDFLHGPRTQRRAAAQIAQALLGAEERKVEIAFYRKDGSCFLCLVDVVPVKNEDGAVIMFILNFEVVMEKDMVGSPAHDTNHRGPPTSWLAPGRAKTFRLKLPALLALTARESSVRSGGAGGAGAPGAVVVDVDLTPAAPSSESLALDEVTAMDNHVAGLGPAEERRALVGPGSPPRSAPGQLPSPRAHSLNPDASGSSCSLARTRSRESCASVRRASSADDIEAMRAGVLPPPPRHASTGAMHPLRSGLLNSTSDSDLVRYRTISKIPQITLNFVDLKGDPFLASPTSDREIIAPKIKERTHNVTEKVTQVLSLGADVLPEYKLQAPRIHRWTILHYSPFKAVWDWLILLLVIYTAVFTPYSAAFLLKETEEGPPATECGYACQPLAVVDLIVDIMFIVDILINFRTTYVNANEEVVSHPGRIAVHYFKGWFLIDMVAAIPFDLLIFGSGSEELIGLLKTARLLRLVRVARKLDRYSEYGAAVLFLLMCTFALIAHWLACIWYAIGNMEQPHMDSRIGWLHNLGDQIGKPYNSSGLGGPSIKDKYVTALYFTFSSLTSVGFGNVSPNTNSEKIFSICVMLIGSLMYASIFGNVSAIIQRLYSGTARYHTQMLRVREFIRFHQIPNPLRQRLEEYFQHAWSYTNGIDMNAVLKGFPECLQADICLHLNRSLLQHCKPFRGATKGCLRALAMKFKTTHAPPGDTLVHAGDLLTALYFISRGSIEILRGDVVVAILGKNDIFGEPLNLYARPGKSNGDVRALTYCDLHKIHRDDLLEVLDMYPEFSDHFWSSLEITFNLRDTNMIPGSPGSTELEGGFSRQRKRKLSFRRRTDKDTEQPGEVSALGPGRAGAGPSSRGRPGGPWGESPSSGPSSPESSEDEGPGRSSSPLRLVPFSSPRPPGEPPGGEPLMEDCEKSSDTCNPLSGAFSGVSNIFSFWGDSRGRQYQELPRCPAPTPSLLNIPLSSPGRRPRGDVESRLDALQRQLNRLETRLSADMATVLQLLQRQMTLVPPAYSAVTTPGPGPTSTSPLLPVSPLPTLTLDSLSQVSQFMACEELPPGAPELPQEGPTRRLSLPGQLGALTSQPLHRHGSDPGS
# CYP2D6 = CYP2D6 (Homo sapiens, UniProt P10635); test: Inhibition of CYP2D6 (unknown origin) at 10 uM relative to control; format: ADME
# Sequence of CYP2D6 (P10635 whole entry): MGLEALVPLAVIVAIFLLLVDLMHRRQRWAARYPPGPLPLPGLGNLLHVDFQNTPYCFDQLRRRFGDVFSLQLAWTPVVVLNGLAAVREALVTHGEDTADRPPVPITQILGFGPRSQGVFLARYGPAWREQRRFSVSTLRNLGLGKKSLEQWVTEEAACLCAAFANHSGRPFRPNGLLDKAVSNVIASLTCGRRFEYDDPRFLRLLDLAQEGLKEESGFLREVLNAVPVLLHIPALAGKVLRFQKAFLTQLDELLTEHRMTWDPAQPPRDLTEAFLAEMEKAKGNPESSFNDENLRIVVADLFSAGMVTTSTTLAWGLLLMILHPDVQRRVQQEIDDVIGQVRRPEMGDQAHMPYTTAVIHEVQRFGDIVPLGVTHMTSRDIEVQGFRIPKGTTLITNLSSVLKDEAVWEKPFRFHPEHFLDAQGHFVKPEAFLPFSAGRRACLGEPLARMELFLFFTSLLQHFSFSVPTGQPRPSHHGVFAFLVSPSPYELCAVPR
# CYP3A4 = CYP3A4 (Homo sapiens, UniProt P08684); test: Inhibition of CYP3A4 (unknown origin) at 10 uM relative to control; format: ADME
# Sequence of CYP3A4 (P08684 whole entry): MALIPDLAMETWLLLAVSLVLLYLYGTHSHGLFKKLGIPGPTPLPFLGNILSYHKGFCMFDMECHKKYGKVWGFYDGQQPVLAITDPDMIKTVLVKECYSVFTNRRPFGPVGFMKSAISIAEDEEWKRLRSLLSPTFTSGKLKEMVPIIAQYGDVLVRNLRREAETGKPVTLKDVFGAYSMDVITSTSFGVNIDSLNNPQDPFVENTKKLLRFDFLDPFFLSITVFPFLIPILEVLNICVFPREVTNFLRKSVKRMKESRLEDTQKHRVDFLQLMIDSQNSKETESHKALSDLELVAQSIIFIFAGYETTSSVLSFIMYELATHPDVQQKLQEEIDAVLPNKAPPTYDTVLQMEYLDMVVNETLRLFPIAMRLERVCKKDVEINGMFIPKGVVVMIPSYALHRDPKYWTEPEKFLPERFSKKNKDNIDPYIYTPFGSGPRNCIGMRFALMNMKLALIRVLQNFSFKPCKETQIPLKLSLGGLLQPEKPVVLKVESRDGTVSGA
# CYP1A2 = biological target: T1, CYP1A2 (Homo sapiens, UniProt P05177); test: Inhibition of CYP1A2 (unknown origin) at 10 uM relative to control; format: ADME
# T1 sequence (P05177 whole entry): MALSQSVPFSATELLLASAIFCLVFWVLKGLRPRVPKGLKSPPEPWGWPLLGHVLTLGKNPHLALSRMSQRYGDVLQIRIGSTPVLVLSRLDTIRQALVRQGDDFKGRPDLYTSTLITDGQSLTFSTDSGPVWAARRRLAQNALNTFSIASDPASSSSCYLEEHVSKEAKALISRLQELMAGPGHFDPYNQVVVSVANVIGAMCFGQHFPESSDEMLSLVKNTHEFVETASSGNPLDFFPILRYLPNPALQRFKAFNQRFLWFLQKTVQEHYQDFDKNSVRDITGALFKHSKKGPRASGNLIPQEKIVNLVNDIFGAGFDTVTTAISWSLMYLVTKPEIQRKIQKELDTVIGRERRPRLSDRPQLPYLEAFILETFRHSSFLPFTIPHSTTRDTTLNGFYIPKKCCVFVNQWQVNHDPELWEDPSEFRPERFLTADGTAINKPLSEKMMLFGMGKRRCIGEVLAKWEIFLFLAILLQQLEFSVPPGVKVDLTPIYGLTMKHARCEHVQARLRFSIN
# CYP2C9 = CYP2C9 (Homo sapiens, UniProt P11712); test: Inhibition of CYP2C9 (unknown origin) at 10 uM relative to control; format: ADME
# Sequence of CYP2C9 (P11712 whole entry): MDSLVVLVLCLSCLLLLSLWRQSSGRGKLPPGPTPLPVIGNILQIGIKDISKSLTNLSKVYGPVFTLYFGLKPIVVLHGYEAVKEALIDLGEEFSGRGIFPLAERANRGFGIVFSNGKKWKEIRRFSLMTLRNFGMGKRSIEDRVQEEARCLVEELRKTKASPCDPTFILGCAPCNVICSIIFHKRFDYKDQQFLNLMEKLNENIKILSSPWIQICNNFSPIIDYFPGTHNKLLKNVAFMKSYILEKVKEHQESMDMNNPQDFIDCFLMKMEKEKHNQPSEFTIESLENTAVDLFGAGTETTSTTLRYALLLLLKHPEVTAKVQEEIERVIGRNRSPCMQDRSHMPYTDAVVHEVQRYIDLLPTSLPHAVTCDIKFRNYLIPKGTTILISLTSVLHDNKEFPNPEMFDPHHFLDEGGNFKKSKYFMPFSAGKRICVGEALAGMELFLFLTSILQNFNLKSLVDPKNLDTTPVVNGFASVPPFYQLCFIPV
# [4] = Apparent permeability from apical to basolateral side in human Caco2 cells; format: ADME, cell-based; details: Caco-2
# [5] = Efflux ratio of apparent permeability in human Caco2 cells; format: ADME, cell-based; details: Caco-2
# [6] = Intrinsic clearance in human liver microsomes at 1 uM; format: ADME, Microsome; details: read-out: CLH
# CYP2C19 = CYP2C19 (Homo sapiens, UniProt P33261); test: Inhibition of CYP2C19 (unknown origin) at 10 uM relative to control; format: ADME
# Sequence of CYP2C19 (P33261 whole entry): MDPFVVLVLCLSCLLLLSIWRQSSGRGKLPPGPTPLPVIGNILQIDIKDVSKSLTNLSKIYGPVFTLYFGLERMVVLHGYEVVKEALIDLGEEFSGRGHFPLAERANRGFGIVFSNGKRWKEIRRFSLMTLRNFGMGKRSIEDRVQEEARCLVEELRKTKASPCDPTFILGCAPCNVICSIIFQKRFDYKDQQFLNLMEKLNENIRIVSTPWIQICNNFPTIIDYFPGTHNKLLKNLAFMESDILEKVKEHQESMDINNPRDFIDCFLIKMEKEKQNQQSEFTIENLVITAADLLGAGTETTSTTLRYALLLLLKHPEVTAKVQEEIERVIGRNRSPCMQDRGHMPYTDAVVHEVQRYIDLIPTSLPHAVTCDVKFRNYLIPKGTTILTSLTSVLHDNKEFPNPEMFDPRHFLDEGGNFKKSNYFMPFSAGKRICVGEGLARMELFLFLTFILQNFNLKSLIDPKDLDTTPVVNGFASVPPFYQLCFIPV
# [7] = biological target: Protein smoothened (Mus musculus) (UniProt P56726); test: Antagonist activity at Smo receptor in mouse NIH/3T3 cells assessed as inhibition of Gli1 mRNA expression incubated for 48 hrs by qRT-PCR analysis; format: cell-based
# Sequence of Protein smoothened (Mus musculus) (P56726 whole entry): as the sequence (P56726 whole entry) above
# [8] = Intrinsic clearance in rat liver microsomes at 1 uM; format: ADME, Microsome; details: read-out: CLH
# [9] = Half life in human liver microsomes at 1 uM; format: ADME, Microsome
# [10] = Half life in rat liver microsomes at 1 uM; format: ADME, Microsome
# Protein smoothened [11] = biological target: Protein smoothened (Homo sapiens, UniProt Q99835); test: Displacement of BODIPY-Cyclopamine from human HA-tagged Smo receptor expressed in human U2OS cells at 1 to 10000 nM incubated for 2 hrs by DAPI staining based fluorescence microscopic method; format: cell-based
# Sequence of Protein smoothened (Homo sapiens, UniProt Q99835) (Q99835 whole entry): as the sequence (Q99835 whole entry D473H) above, with H473D counted along it
Compound,IC50 (Protein smoothened [1]) [nM],inhibition (HEK293),also measured
CN(C(=O)c1ccc(F)cc1C(F)(F)F)C1CCN(c2nnc(-c3ccnn3C)s2)CC1,> 10000,,
Cc1ccc(CCc2ccnn2-c2nnc(N3CCC(C(=O)NC4CCCCC4C)CC3)s2)nc1 (configuration not stated),57,Active,
CS(=O)(=O)c1ccc(C(=O)Nc2ccc(Cl)c(-c3ccccn3)c2)c(Cl)c1 [VISMODEGIB],,,IC50 (Medulloblastoma cell): 4.7 nM; Activity (U-251): Non-Toxic; inhibition [2]: inactive
Cc1cnc(NCc2ccnn2-c2nnc(N3CCC(C(=O)NC4CCCCC4C)CC3)s2)cn1 (configuration not stated),410,Active,
Cc1ccc(NCc2c(-c3nnc(N4CCC(C(=O)NC5CCCCC5C)CC4)s3)cnn2C)nc1 (configuration not stated),1800,Active,
Cc1cnc(NCc2ccnn2-c2nnc(N3CCC(C(=O)NC4CCCCC4C)CC3)s2)nc1 (configuration not stated),180,Active,
CC1CCCCC1NC(=O)C1CCN(c2nnc(-c3ccnn3C)s2)CC1 (configuration not stated),> 10000,,
CC(O)c1ccnn1-c1nnc(N2CCC(C(=O)NC3CCCCC3C)CC2)s1 (configuration not stated),3700,Active,
Cc1ccc(NCc2ccnn2-c2nnc(N3CCC(C(=O)Nc4cnccc4C)CC3)s2)nc1,550,Active,
Cc1ccc(NCc2ccnn2-c2nnc(N3CCC(C(=O)Nc4ncccc4C)CC3)s2)nc1,280,Active,
Cc1ccc(NCc2ccnn2-c2nnc(N3CCC(C(=O)NC4CCCCC4C)CC3)s2)cc1 (configuration not stated),46,Active,IC50 (Protein smoothened [11]): 18 nM
Cc1ccc(NCc2ccnn2-c2nnc(N3CCC(C(=O)Nc4ccccc4C)CC3)s2)nc1,140,Active,
Cc1ccc(NCc2ccnn2-c2nnc(N3CCC(C(=O)NC4CCCCC4C)CC3)s2)cn1 (configuration not stated),51,Active,
Cc1ccc(NCc2ccnn2-c2nnc(N3CCC(C(=O)N[C@@H]4CCCC[C@@H]4C)CC3)s2)nc1,8.4,Active,
Cc1ccc(NCc2ccccc2-c2nnc(N3CCC(C(=O)NC4CCCCC4C)CC3)s2)nc1 (configuration not stated),290,Active,
Cc1ccc(OCc2ccnn2-c2nnc(N3CCC(C(=O)NC4CCCCC4C)CC3)s2)nc1 (configuration not stated),42,Active,
CC1CCCCC1NC(=O)C1CCN(c2nnc(-n3cccn3)s2)CC1 (configuration not stated),> 10000,,

# Now from value to compound, other results behind:
IC50 (Protein smoothened [1]) [nM],Compound,inhibition (HEK293),also measured
69,CC1CCCCC1NC(=O)C1CCN(c2nnc(-n3nccc3CNc3cccnc3)s2)CC1 (configuration not stated),Active,
> 10000,Cc1cc(C)n(-c2nnc(N3CCC(C(=O)NC4CCCCC4C)CC3)s2)n1 (configuration not stated),,
81,Cc1ccc(NCc2ccnn2-c2nnc(N3CCC(C(=O)NC4CCCCC4C)CC3)s2)nn1 (configuration not stated),Active,
460,Cc1ccc(NCc2ccnn2-c2nnc(N3CCC(C(=O)Nc4cccnc4C)CC3)s2)nc1,Active,
7.1,Cc1ccc(NCc2ccnn2-c2nnc(N3CCC(C(=O)N[C@H]4CCCC[C@H]4C)CC3)s2)nc1,Active,IC50 [3]: > 30000 nM; inhibition at 10 µM (CYP2D6): 59%; inhibition at 10 µM (CYP3A4): 72%; inhibition at 10 µM (CYP1A2): -4%; inhibition at 10 µM (CYP2C9): 26%; Papp A→B [4]: 23 ×10⁻⁶ cm/s; efflux ratio [5]: 1.03; CLint scaled at 1 µM [6]: 2700 mL/min/kg; inhibition at 10 µM (CYP2C19): 7.1%; IC50 (Medulloblastoma cell): 0.5 nM; Activity (U-251): Non-Toxic; inhibition [7]: Active; inhibition [2]: Active; CLint scaled at 1 µM [8]: 2000 mL/min/kg; half-life at 1 µM [9]: 38.4 s; half-life at 1 µM [10]: 78 s
> 10000,C[C@@H]1CN(c2nnc(Cc3ccccc3)s2)CCN1c1cnc(C(C)(C)O)cn1,,
7.1,Cc1ccc(NCc2ccnn2-c2nnc(N3CCC(C(=O)NC4CCCCC4C)CC3)s2)nc1 (racemic),Active,IC50 (Protein smoothened [11]): 3.9 nM
> 10000,CC1CCCCC1NC(=O)C1CCN(c2nnc(-n3nccc3CO)s2)CC1 (configuration not stated),,
18,CC1CCCCC1NC(=O)C1CCN(c2nnc(-n3nccc3CNc3ccccn3)s2)CC1 (configuration not stated),Active,
220,Cc1ccc(NCc2ccnn2-c2nnc(N3CCC(C(=O)Nc4ccncc4C)CC3)s2)nc1,Active,
